Test results from ChEMBL document CHEMBL1129553, “Synthesis and pharmacology of highly selective carboxy and phosphono isoxazole amino acid AMPA receptor antagonists” (J Med Chem, 1996).

Legend:
[1] = molecular target: Glutamate receptor ionotropic, kainate; assay: In vitro inhibition of [3H]KAIN binding to Ionotropic glutamate receptor kainate.; assay type: protein-complex assay
[2] = molecular target: T1, Glutamate receptor ionotropic, AMPA (Rattus norvegicus, UniProt P19490+P19491+P19492+P19493); assay: In vitro inhibition of [3H]AMPA binding to Ionotropic glutamate receptor AMPA.; assay type: protein-complex assay
[3] = molecular target: T1, Glutamate receptor ionotropic, AMPA; assay: Inhibition of AMPA induced electrophysiological responses in rat cortical slices.; assay type: functional
[4] = molecular target: Glutamate NMDA receptor; assay: In vitro inhibition of [3H]CPP binding to NMDA receptor.; assay type: protein-complex assay
[5] = molecular target: T1, Glutamate receptor ionotropic, AMPA; assay: In vitro inhibition of [3H]CNQX binding to Ionotropic glutamate receptor AMPA.; assay type: protein-complex assay
[6] = species: Rattus norvegicus; assay: Inhibitory activity against antagonism of AMPA induced responses in rat cortical slices; assay type: functional

CCCC(CCC)c1onc(OCP(=O)(O)O)c1CC(N)C(=O)O (stereo unspecified)
IC50 [1]: > 100 µM
IC50 [2]: > 100 µM
IC50 [3]: 350 µM

CC(C)(C)c1onc(OCC(=O)O)c1CC(N)C(=O)O (stereo unspecified)
IC50 [1]: > 100 µM
IC50 [4]: > 100 µM
IC50 [2]: 33 µM
IC50 [3]: 150 µM
IC50 [5]: 12 µM

CCCC(CCC)c1onc(OCC(=O)O)c1CC(N)C(=O)O (stereo unspecified)
IC50 [1]: > 100 µM
IC50 [4]: > 100 µM
IC50 [2]: > 100 µM
IC50 [3]: > 1000 µM
IC50 [5]: 63 µM

O=C(O)C1Cc2c(OCP(=O)(O)O)noc2CN1 (stereo unspecified)
IC50 [1]: > 100 µM
IC50 [4]: 22 µM
IC50 [2]: > 100 µM
IC50 [5]: > 100 µM

NC(Cc1c(OCP(=O)(O)O)noc1-c1cccs1)C(=O)O (stereo unspecified)
IC50 [1]: > 100 µM
IC50 [4]: > 100 µM
IC50 [2]: > 100 µM
IC50 [3]: 360 µM
IC50 [5]: > 100 µM

CCCCc1onc(OCP(=O)(O)O)c1CC(N)C(=O)O (stereo unspecified)
IC50 [1]: > 100 µM
IC50 [4]: > 100 µM
IC50 [2]: > 100 µM
IC50 [3]: 140 µM
IC50 [5]: 18 µM

Cc1onc(OCP(=O)(O)O)c1CC(N)C(=O)O (stereo unspecified)
IC50 [1]: > 100 µM
IC50 [4]: > 100 µM
IC50 [2]: 31 µM
IC50 [3]: 60 µM
IC50 [5]: 6.9 µM

CCCCc1onc(OCC(=O)O)c1CC(N)C(=O)O (stereo unspecified)
IC50 [1]: > 100 µM
IC50 [4]: > 100 µM
IC50 [2]: > 100 µM
IC50 [3]: > 1000 µM
IC50 [5]: 87 µM

NC(Cc1cc(OCC(=O)O)no1)C(=O)O (stereo unspecified)
IC50 [1]: > 100 µM
IC50 [4]: > 100 µM
IC50 [2]: > 100 µM
IC50 [3]: > 1000 µM
IC50 [5]: > 100 µM

NC(Cc1c(OCC(=O)O)noc1-c1ccccc1)C(=O)O (stereo unspecified)
IC50 [1]: > 100 µM
IC50 [4]: > 100 µM
IC50 [2]: > 100 µM
IC50 [3]: > 1000 µM
IC50 [5]: > 100 µM

NC(Cc1cc(OCP(=O)(O)O)no1)C(=O)O (stereo unspecified)
IC50 [1]: > 100 µM
IC50 [4]: > 100 µM
IC50 [2]: > 100 µM
IC50 [3]: > 1000 µM
IC50 [5]: > 100 µM

O=C(O)[C@H]1CN(CCCP(=O)(O)O)CCN1
IC50 [4]: 0.05 µM
IC50 [2]: > 100 µM
Ki [3]: 1.6 µM

CC(C)(C)c1onc(OCP(=O)(O)O)c1CC(N)C(=O)O (stereo unspecified)
IC50 [1]: > 100 µM
IC50 [4]: > 100 µM

CC(C)(C)Cc1onc(OCP(=O)(O)O)c1CC(N)C(=O)O (stereo unspecified)
IC50 [1]: > 100 µM
IC50 [4]: > 100 µM
IC50 [2]: > 100 µM
IC50 [3]: > 1000 µM
IC50 [5]: 35 µM

NC(Cc1c(OCC(=O)O)noc1-c1cccs1)C(=O)O (stereo unspecified)
IC50 [1]: > 100 µM
IC50 [4]: > 100 µM
IC50 [2]: > 100 µM
IC50 [3]: > 1000 µM
IC50 [5]: > 100 µM

CC(C)(C)Cc1onc(OCC(=O)O)c1CC(N)C(=O)O (stereo unspecified)
IC50 [1]: > 100 µM
IC50 [4]: > 100 µM
IC50 [2]: > 100 µM
IC50 [3]: > 1000 µM
IC50 [5]: > 100 µM

N#Cc1cc2c(cc1[N+](=O)[O-])=NC(=O)C(=O)N=2
IC50 [1]: 1.5 µM
IC50 [4]: 25 µM

NC(Cc1c(OCP(=O)(O)O)noc1-c1ccccc1)C(=O)O (stereo unspecified)
IC50 [1]: > 100 µM
IC50 [4]: > 100 µM
IC50 [2]: > 100 µM
IC50 [3]: > 1000 µM
IC50 [5]: > 100 µM

Cc1onc(OCC(=O)O)c1CC(N)C(=O)O (stereo unspecified)
IC50 [6]: 320 µM
IC50 [5]: 8 µM
